Key:
in vivo [1] = details: male, beagle, dog, iv, 2 mg/kg
in vivo [2] = details: male, beagle, dog, iv, 2 mg/kg; remark: listed apart in the source

AUC(0-inf) (in vivo [1]): 1950 ng·h/mL
AUC(0-t) (in vivo [1]): 1840 ng·h/mL
Cmax (in vivo [1]): 1690 ng/mL
MRT (in vivo [1]): 3.67 h
Tmax (in vivo [1]): 1 h
Vd (in vivo [1]): 6.59 L/kg
clearance (in vivo [1]): 19.3 mL/min/kg
AUC(0-inf) (in vivo [2]): 768 ng·h/mL
AUC(0-t) (in vivo [2]): 701 ng·h/mL
Cmax (in vivo [2]): 811 ng/mL
MRT last (in vivo [2]): 5.26 h
Tmax (in vivo [2]): 0 h
Vd (in vivo [2]): 2.1 L/kg
clearance (in vivo [2]): 44.3 mL/min/kg
half-life (in vivo [2]): 7.57 h
SMILES: CC(=O)O[C@H]1C(=O)[C@@]2(C)[C@H]([C@H](OC(=O)c3ccccc3)[C@]3(O)C[C@H](OC(=O)[C@H](O)[C@@H](NC(=O)c4ccccc4)c4ccccc4)C(C)=C1C3(C)C)[C@]1(OC(C)=O)CO[C@@H]1C[C@@H]2O [Paclitaxel, paclitaxel]

Source: patent US20230321246A1, “HIGH-STRENGTH ORAL TAXANE COMPOSITIONS AND METHODS” (ATHENEX HK INNOVATIVE LIMITED, priority 2017, published 2023)
